Test results from paper PMC10412597, “Small molecule branched-chain ketoacid dehydrogenase kinase (BDK) inhibitors with opposing effects on BDK protein levels” (Nature Communications, 2023).

Columns and labels:
Set-up in all cases: Invitrogen kinase panel, per cent inhibition of kinase activity
CHEK2 = CHEK2 (Homo sapiens, UniProt O96017); conditions: 10 µM, inhibitor
Experimental: (§1) To discover a potent and selective BDK inhibitor, a subset of the Pfizer compound collection was screened. […] Off target activity was assessed in both CEREP and kinase panels (Supplementary Tables 2, 3).

EPHA2 = EPHA2 (Homo sapiens, UniProt P29317); conditions: 10 µM, inhibitor
Experimental: as §1

[1] = molecular target: T1, Eukaryotic elongation factor-2 kinase (Homo sapiens, UniProt O00418); conditions: 10 µM, inhibitor
T1 construct: gene EEF2K
In short: (§2)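 Compounds from a BDK inhibitor screen were counter-screened for off-target activity in a kinase panel.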

HCK = HCK (Homo sapiens, UniProt P08631); conditions: 10 µM, inhibitor
In short: as §2

IRAK4 = molecular target: T2, IRAK4 (Homo sapiens, UniProt Q9NWZ3); conditions: 10 µM, inhibitor
T2 sequence (Q9NWZ3 1-460): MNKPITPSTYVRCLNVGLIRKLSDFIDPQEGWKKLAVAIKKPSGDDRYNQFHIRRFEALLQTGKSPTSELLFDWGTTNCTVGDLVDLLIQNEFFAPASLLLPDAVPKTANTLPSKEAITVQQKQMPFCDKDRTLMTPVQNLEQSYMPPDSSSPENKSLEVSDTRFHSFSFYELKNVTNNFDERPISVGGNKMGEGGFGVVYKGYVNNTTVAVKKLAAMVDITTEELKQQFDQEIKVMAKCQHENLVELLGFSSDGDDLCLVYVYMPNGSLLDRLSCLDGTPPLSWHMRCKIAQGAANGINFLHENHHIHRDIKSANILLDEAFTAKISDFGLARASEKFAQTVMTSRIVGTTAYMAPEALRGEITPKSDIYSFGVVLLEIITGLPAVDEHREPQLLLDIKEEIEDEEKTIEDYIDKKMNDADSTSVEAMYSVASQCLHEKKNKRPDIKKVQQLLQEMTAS
Experimental: as §1

[2] = molecular target: T3, IkB kinase beta subunit (IKK BETA) (Homo sapiens, UniProt O14920); conditions: 10 µM, inhibitor
T3 construct: gene IKBKB
In short: as §2

LCK = LCK (Homo sapiens, UniProt P06239); conditions: 10 µM, inhibitor
Experimental: as §1

MET = MET (Homo sapiens, UniProt P08581); conditions: 10 µM, inhibitor
Experimental: as §1

MST4 = molecular target: T4, MST4 (Homo sapiens, UniProt Q9P289); conditions: 10 µM, inhibitor
T4 construct: gene STK26
Experimental: as §1

MYLK2 = MYLK2 (Homo sapiens, UniProt Q9H1R3); conditions: 10 µM, inhibitor
Experimental: as §1

NUAK1 = NUAK1 (Homo sapiens, UniProt O60285); conditions: 10 µM, inhibitor
In short: as §2

PI4KA = PI4KA (Homo sapiens, UniProt P42356); conditions: inhibitor
Experimental: as §1

PI4KB = PI4KB (Homo sapiens, UniProt Q9UBF8); conditions: 10 µM, inhibitor
In short: as §2

PIM2 = PIM2 (Homo sapiens, UniProt Q9P1W9); conditions: 10 µM, inhibitor
Experimental: as §1

PRKCB2 = molecular target: T5, PRKCB2 (Homo sapiens, UniProt P05771); conditions: 10 µM, inhibitor
T5 construct: gene PRKCB; isoform beta2
Experimental: as §1

ROCK1 = ROCK1 (Homo sapiens, UniProt Q13464); conditions: 10 µM, inhibitor
Experimental: as §1

ROCK2 = ROCK2 (Homo sapiens, UniProt O75116); conditions: 10 µM, inhibitor
In short: as §2

SGK1 = molecular target: T6, SGK1 (Homo sapiens, UniProt O00141); conditions: 10 µM, inhibitor
T6 sequence (O00141 1-431): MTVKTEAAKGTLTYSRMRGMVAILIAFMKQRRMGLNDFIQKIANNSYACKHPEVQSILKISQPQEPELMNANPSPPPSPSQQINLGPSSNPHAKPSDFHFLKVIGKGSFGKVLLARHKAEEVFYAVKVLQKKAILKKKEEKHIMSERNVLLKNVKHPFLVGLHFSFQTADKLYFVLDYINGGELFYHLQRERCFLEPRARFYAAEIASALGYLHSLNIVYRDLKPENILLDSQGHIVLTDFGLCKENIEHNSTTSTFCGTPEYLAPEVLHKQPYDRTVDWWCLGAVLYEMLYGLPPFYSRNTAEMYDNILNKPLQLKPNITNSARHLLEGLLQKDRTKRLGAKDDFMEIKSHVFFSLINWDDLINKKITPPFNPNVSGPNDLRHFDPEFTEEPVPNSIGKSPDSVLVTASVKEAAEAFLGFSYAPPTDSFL
Experimental: as §1

EPHA2, sequence (P29317 whole entry): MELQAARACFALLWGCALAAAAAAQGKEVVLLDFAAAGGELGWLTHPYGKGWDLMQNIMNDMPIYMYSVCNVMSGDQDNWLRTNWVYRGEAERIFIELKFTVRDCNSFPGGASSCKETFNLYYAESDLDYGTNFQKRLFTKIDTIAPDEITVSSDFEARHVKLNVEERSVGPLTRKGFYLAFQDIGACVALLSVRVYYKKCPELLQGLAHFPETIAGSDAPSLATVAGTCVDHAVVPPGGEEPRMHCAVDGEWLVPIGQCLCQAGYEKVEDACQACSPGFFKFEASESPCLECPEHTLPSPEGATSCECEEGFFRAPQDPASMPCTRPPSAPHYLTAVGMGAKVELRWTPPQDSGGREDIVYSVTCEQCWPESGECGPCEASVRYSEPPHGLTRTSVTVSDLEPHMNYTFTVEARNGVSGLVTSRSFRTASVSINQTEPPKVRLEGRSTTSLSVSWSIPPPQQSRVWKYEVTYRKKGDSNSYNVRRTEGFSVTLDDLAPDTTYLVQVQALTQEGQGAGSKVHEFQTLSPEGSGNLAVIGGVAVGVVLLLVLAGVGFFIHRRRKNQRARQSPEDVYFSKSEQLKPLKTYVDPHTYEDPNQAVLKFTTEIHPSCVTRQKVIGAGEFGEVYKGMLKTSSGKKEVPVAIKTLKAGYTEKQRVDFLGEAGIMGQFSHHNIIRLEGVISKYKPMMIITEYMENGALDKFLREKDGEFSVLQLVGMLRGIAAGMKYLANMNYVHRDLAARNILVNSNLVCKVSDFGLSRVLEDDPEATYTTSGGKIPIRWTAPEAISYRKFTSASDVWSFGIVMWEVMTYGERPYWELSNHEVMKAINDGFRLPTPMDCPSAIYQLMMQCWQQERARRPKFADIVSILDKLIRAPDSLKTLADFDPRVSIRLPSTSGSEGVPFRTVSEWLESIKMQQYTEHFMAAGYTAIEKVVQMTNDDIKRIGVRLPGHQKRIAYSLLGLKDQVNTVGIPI
MET, sequence (P08581 whole entry): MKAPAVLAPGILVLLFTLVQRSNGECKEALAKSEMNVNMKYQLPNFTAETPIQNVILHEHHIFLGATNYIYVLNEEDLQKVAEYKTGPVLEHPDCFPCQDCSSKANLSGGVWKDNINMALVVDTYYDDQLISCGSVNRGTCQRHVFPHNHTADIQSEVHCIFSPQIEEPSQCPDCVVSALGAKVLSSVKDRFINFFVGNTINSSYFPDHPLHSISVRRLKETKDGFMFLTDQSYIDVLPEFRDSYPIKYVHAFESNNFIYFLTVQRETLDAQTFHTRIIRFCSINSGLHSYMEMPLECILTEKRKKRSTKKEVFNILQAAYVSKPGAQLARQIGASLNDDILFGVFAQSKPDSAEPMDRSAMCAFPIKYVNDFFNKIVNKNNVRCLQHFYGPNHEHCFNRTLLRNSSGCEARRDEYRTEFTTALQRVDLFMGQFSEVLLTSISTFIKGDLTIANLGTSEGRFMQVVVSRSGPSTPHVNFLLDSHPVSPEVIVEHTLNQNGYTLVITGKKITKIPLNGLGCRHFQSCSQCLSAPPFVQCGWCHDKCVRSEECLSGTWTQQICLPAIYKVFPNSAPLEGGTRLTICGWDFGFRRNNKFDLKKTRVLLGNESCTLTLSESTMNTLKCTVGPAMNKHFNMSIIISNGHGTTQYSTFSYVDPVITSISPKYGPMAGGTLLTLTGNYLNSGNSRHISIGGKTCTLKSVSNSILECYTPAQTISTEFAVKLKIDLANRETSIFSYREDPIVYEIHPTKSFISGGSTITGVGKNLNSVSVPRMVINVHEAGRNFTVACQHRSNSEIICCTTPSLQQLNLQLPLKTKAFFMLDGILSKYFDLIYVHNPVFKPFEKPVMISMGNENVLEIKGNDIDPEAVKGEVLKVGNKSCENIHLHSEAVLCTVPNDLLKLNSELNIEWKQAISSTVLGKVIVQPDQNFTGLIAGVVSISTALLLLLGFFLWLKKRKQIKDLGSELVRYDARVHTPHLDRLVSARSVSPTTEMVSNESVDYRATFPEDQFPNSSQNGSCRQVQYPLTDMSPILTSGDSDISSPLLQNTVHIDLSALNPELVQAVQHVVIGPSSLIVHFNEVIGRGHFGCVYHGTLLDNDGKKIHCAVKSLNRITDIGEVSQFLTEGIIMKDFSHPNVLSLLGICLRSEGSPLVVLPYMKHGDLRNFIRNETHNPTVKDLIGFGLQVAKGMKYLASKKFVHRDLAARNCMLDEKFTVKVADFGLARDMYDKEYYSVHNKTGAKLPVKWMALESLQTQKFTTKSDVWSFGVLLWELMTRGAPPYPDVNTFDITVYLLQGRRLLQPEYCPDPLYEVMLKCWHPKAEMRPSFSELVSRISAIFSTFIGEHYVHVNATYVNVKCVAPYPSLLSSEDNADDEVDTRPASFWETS
LCK, sequence (P06239 whole entry): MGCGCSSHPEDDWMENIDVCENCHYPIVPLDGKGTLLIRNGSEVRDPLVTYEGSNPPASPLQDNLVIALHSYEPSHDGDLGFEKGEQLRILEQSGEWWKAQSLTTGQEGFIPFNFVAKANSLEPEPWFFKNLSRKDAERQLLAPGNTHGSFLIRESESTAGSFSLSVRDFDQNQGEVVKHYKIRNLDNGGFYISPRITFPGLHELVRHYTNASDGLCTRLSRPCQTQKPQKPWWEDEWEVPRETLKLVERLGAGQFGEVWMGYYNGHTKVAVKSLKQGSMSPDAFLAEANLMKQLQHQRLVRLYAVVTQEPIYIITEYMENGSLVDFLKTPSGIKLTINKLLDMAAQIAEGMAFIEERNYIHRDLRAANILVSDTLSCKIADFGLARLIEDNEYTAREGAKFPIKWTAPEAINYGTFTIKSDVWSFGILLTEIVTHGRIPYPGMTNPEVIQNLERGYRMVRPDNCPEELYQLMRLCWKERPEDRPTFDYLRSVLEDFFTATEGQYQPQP
PIM2, sequence (Q9P1W9 whole entry): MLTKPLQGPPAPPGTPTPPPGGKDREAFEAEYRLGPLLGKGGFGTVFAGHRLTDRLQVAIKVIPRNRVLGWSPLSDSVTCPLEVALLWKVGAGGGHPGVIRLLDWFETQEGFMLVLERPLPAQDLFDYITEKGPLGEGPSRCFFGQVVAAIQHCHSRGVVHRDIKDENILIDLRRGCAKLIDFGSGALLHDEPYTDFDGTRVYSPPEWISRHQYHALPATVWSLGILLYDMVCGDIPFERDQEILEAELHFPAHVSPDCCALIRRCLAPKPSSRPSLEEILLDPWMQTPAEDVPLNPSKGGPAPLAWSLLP
T4 sequence (Q9P289 whole entry): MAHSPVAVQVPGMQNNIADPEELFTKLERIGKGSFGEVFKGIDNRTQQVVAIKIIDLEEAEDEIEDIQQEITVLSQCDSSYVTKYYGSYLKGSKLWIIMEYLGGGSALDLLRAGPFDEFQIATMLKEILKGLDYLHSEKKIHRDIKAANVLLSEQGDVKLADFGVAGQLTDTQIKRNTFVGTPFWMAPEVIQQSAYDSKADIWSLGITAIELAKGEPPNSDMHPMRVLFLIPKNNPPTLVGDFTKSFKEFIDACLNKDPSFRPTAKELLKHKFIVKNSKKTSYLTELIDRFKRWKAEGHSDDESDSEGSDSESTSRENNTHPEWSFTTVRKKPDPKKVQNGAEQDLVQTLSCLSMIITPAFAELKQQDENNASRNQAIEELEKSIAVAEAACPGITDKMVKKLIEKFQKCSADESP
T5 sequence (P05771 whole entry, canonical isoform): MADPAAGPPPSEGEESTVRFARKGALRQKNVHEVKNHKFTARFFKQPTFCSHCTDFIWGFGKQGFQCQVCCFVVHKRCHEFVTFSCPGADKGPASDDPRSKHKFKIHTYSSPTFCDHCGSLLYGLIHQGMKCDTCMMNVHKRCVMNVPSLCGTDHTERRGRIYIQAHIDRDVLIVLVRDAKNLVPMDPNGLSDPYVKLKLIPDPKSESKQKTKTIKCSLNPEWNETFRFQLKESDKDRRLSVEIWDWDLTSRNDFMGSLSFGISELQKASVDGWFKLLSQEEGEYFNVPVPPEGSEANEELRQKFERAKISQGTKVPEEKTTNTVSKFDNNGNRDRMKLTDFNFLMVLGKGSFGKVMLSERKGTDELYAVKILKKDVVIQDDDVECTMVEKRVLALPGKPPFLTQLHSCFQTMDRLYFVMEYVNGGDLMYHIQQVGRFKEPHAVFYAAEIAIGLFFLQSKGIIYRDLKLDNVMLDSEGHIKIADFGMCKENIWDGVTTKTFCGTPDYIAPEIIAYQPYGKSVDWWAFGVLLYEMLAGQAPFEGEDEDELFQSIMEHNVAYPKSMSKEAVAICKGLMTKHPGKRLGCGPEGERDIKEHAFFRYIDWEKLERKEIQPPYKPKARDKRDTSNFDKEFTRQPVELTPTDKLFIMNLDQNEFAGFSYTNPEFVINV
MYLK2, sequence (Q9H1R3 whole entry): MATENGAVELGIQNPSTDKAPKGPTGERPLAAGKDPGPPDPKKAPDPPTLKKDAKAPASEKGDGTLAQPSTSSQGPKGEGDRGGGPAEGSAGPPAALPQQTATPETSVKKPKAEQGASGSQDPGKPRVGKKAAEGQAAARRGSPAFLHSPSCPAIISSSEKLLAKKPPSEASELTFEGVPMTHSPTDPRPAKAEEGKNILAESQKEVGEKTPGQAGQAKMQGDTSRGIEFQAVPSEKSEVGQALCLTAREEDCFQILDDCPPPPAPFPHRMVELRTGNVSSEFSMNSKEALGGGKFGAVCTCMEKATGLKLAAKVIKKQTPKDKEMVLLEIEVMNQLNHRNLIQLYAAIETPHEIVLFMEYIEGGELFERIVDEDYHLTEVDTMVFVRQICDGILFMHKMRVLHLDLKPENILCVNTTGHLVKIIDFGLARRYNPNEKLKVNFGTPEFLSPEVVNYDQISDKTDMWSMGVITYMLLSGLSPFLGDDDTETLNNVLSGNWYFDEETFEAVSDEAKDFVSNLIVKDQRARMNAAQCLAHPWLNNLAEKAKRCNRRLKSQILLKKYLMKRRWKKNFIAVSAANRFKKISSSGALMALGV

## CCC1(COc2ccc(-c3csc(-c4ccccc4C(=O)O)n3)cn2)CC1 [PF-07247685, 2-(4-{6-[(1-ethylcyclopropyl)methoxy]pyridin-3-yl}-1,3-thiazol-2-yl)benzoic acid]
CHEK2
  ATP = 1 mM % Inhibition PF-07247685: -0.2%
  ATP = Km % Inhibition PF-07247685: 3.8%
EPHA2
  ATP = 1 mM % Inhibition PF-07247685: 5.6%
  ATP = Km % Inhibition PF-07247685: 0.6%
[1]
  ATP = Km % Inhibition PF-07247685: -1.5%
HCK
  ATP = Km % Inhibition PF-07247685: 4.5%
IRAK4
  ATP = 1 mM % Inhibition PF-07247685: 2.9%
  ATP = Km % Inhibition PF-07247685: -0.9%
[2]
  ATP = Km % Inhibition PF-07247685: -0.0%
LCK
  ATP = 1 mM % Inhibition PF-07247685: 3.0%
  ATP = Km % Inhibition PF-07247685: 5.9%
MET
  ATP = 1 mM % Inhibition PF-07247685: -2.2%
  ATP = Km % Inhibition PF-07247685: -0.3%
MST4
  ATP = 1 mM % Inhibition PF-07247685: -2.9%
  ATP = Km % Inhibition PF-07247685: 2.9%
MYLK2
  ATP = 1 mM % Inhibition PF-07247685: 1.7%
  ATP = Km % Inhibition PF-07247685: 1.4%
NUAK1
  ATP = Km % Inhibition PF-07247685: -18.2%
PI4KA
  ATP = 10 uM % Inhibition PF-07247685: -3.1%
PI4KB
  ATP = Km % Inhibition PF-07247685: 7.1%
PIM2
  ATP = 1 mM % Inhibition PF-07247685: 0.9%
  ATP = Km % Inhibition PF-07247685: 0.1%
PRKCB2
  ATP = 1 mM % Inhibition PF-07247685: 4.0%
  ATP = Km % Inhibition PF-07247685: 9.4%
ROCK1
  ATP = 1 mM % Inhibition PF-07247685: -0.9%
  ATP = Km % Inhibition PF-07247685: 2.4%
ROCK2
  ATP = Km % Inhibition PF-07247685: 5.5%
SGK1
  ATP = 1 mM % Inhibition PF-07247685: -5.1%
  ATP = Km % Inhibition PF-07247685: 0.7%

## O=C(O)c1sc2cc(F)sc2c1Cl [PF-07208254, 3-chloro-5-fluorothieno[3,2-b]thiophene-2-carboxylic acid]
CHEK2
  ATP = 1 mM % Inhibition PF-07208254: -0.7%
  ATP = Km % Inhibition PF-07208254: 6.7%
EPHA2
  ATP = 1 mM % Inhibition PF-07208254: -5.6%
  ATP = Km % Inhibition PF-07208254: 0.5%
[1]
  ATP = Km % Inhibition PF-07208254: 2.3%
HCK
  ATP = Km % Inhibition PF-07208254: 9.9%
IRAK4
  ATP = 1 mM % Inhibition PF-07208254: -2.1%
  ATP = Km % Inhibition PF-07208254: 6.2%
[2]
  ATP = Km % Inhibition PF-07208254: 4.8%
LCK
  ATP = 1 mM % Inhibition PF-07208254: 9.9%
  ATP = Km % Inhibition PF-07208254: 20.6%
MET
  ATP = 1 mM % Inhibition PF-07208254: -10.2%
  ATP = Km % Inhibition PF-07208254: -3.1%
MST4
  ATP = 1 mM % Inhibition PF-07208254: 3.7%
  ATP = Km % Inhibition PF-07208254: 16.7%
MYLK2
  ATP = 1 mM % Inhibition PF-07208254: -0.1%
  ATP = Km % Inhibition PF-07208254: -3.6%
NUAK1
  ATP = Km % Inhibition PF-07208254: 10.3%
PI4KA
  ATP = 10 uM % Inhibition PF-07208254: 8.2%
PI4KB
  ATP = Km % Inhibition PF-07208254: 7.9%
PIM2
  ATP = 1 mM % Inhibition PF-07208254: -5.2%
  ATP = Km % Inhibition PF-07208254: 22.3%
PRKCB2
  ATP = 1 mM % Inhibition PF-07208254: 1.9%
  ATP = Km % Inhibition PF-07208254: -1.7%
ROCK1
  ATP = 1 mM % Inhibition PF-07208254: 0.8%
  ATP = Km % Inhibition PF-07208254: 3.6%
ROCK2
  ATP = Km % Inhibition PF-07208254: -5.8%
SGK1
  ATP = 1 mM % Inhibition PF-07208254: 1.9%
  ATP = Km % Inhibition PF-07208254: -0.1%
